Assays:
Assay type in all cases: cell-based, murine
heme oxygenase 1 (HO-1) = assay: Nrf2-dependent HO-1 transcription in RAW264.7 cells (qPCR, Taqman); details: for HO-1 steady-state mRNA levels, fold vs media and vehicle controls: 8 hours (maximum)
Procedure: (§1) Murine macrophage cells (RAW264.7) were treated with the purified thiolated NO2—OA for 4 hours. RNA was extracted using the Trizol method, quantified using nanodrop technology, reversed transcribed into cDNA and then quantitative PCR was performed using Taqman assays. […] The concentration of 50 μM OA-NO2—Sx induced a similar Nrf2 activation profile for HO-1, NQO-1 and GCLM (18.0-, 6.8- and 6.3-fold, respectively) as 5 μM OA-NO2 (23.5-, 7.7-, 6.8-fold for HO-1, NQO1 and GCLM, respectively) at the 4 hour time point.
(§2) Experimental details: In every experiment, RAW264.7 cells were treated with 7.5, 15, 50 and 100 μM OA-NO2—Sx, 5 μM OA-NO2 two concentrations of methanol (MeOH) to match the lowest and highest amount of vehicle (5 and 100 μM) and a media control only. Within each experiment, there were two or three biological replicates per treatment group. After treatment, RNA was extracted using the Trizol method, quantified using nanodrop technology, reversed transcribed into cDNA and then quantitative PCR (qPCR) was performed using Taqman assays. In each qPCR experiment, there were two technical replicates per sample of RNA. The two technical replicates were then averaged for each biological replicate. The bars in the graph represent mean±standard error of the mean (SEM) of the biological replicates.
(§3) Murine macrophage cells (RAW264.7) were treated with 50 μM OA-NO2—Sx, 5 μM OA-NO2, MeOH (the highest amount of vehicle added to RAW cells to match the highest concentration, which is 50 μM for OA-NO2—Sx) and media alone for 4, 8, 16 and 24 hours. RNA was extracted at each time point using the Trizol method, quantified using nanodrop technology, reversed transcribed into cDNA and then quantitative PCR was performed using Taqman assays. […] There was a similar trend for GCLM mRNA levels (FIG. 7) remained elevated for OA-NO2—Sx (30.0-fold) compared to 1.7-fold for 5 μM OA-NO2 treatment at 16 hours.
(§4) Experimental details: Murine macrophage cells (RAW264.7) were treated with 50 μM OA-NO2—Sx, 5 μM OA-NO2, MeOH (the highest amount of vehicle added to RAW cells to match the highest concentration, which is 50 μM for OA-NO2—Sx) and media alone for 4, 8, 16 and 24 hours. RNA was extracted at each time point using the Trizol method, quantified using nanodrop technology, reversed transcribed into cDNA and then quantitative PCR for HO-1, NQO-1 and GCLM (multiplexed with actin) was performed using Taqman assays. Within each independent experiment, every treatment had at least two biological replicates at each time point. The data represents two independent experiments as mean±SEM.

[1] = tested on: NAD(P)H dehydrogenase quinone 1 (NQO-1); assay: Nrf2-dependent NQO-1 transcription in RAW264.7 cells (qPCR, Taqman); details: for NQO-1 transcription, fold vs controls / NQO-1 mRNA levels, fold: RAW264.7
Procedure: as §1, §2, §3, §4

[2] = tested on: glutamate-cysteine ligase modifier subunit (GCLM); assay: Nrf2-dependent GCLM transcription in RAW264.7 cells (qPCR, Taqman); details: for GCLM transcription, fold vs controls / GCLM mRNA levels, fold: RAW264.7; for GCLM mRNA levels, fold: 16 hours
Procedure: as §1, §2, §3, §4

[3] = 7.5, 15, 50 and 100 μM, 4 hours, compared to controls

Row | Compound | HO-1 transcription, fold vs controls (heme oxygenase 1 (HO-1); 50 μM OA-NO2—Sx, 4 hours, RAW264.7) [fold] | HO-1 steady-state mRNA levels, fold vs media and vehicle controls (heme oxygenase 1 (HO-1); 50 μM, RAW264.7) [fold] | HO-1 mRNA levels, fold (heme oxygenase 1 (HO-1); 50 μM, 16 hours, RAW264.7) [fold] | HO-1 mRNA levels (heme oxygenase 1 (HO-1); 50 μM, 24 hours, RAW264.7) | Nrf2-dependent transcription of HO-1, dose response (heme oxygenase 1 (HO-1); [3]) | NQO-1 transcription, fold vs controls ([1]; 50 μM OA-NO2—Sx, 4 hours) [fold] | NQO-1 mRNA levels, fold ([1]; 50 μM, 16 hours) [fold] | Nrf2-dependent transcription of NQO-1, dose response [1, 3] | GCLM transcription, fold vs controls ([2]; 50 μM OA-NO2—Sx, 4 hours) [fold] | GCLM mRNA levels, fold ([2]; 50 μM) [fold] | Nrf2-dependent transcription of GCLM, dose response [2, 3] | HO-1 transcription, fold vs controls (heme oxygenase 1 (HO-1); 5 μM OA-NO2, 4 hours, RAW264.7) [fold] | HO-1 steady-state mRNA levels, fold vs media and vehicle controls (heme oxygenase 1 (HO-1); 5 μM, RAW264.7) [fold] | HO-1 mRNA levels (heme oxygenase 1 (HO-1); 5 μM, 16 hours, RAW264.7) | HO-1 mRNA levels (heme oxygenase 1 (HO-1); 5 μM, 24 hours, RAW264.7) | NQO-1 transcription, fold vs controls ([1]; 5 μM OA-NO2, 4 hours) [fold] | NQO-1 mRNA levels, fold ([1]; 5 μM, 8 hours) [fold] | NQO-1 mRNA levels, fold ([1]; 5 μM, 16 hours) [fold] | GCLM transcription, fold vs controls ([2]; 5 μM OA-NO2, 4 hours) [fold] | GCLM mRNA levels, fold ([2]; 5 μM) [fold]
1 | CCCCCCCCC(SC(CCCCCCCC)C(CCCCCCCC(=O)O)[N+](=O)[O-])C(CCCCCCCC(=O)O)[N+](=O)[O-] (centres unmarked) [OA-NO2—Sx, thiolated nitro-oleic acid] | 18.0 | 116.5 | 7.5 | returned to basal levels | dose-dependent increase | 6.8 | 701.1 | dose-dependent increase | 6.3 | 30.0 | dose-dependent increase |  |  |  |  |  |  |  |  | 
2 | Nitro-oleic acid [OA-NO2, reference compound] |  |  |  |  |  |  |  |  |  |  |  | 23.5 | 30.7 | returned to baseline | returned to basal levels | 7.7 | 115.0 | 98.9 | 6.8 | 1.7
